In the data set the target is recombinant human CYP3A4 enzyme (Homo sapiens, UniProt P08684). Put plainly: CYP3A4-Glo Screening System luminescent CYP3A4 inhibition assay. Conditions: for CYP3A4 inhibition activity (in words): compared with pterostilbene and ellipticine.
Chain of recombinant human CYP3A4 enzyme (P08684 whole entry): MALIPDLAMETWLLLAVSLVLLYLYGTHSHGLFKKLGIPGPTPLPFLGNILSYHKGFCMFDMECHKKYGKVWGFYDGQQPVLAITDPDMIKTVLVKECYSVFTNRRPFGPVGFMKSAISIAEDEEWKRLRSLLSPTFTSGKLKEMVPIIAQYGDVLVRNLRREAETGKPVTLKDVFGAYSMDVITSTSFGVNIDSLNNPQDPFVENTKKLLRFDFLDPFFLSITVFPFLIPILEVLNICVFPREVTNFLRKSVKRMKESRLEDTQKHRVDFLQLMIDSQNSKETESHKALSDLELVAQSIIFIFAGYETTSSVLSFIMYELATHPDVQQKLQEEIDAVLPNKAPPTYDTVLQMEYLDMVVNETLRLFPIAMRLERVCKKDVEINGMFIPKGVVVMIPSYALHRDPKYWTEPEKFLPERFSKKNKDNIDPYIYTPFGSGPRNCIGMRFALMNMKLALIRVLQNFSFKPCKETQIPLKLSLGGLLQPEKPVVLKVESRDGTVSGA

One may read the IC50 as the concentration at which inhibition is half-maximal. Regarding `O=C(/C=C/c1ccc(O)cc1)CC(=O)/C=C/c1ccc(O)cc1` [Bisdemethoxycurcumin], the IC50 worked out at 14.8 ± 2.09 µM and the “CYP3A4 inhibition activity (in words)” value was “weaker”. Turning to `Cc1c2ccncc2c(C)c2c1[nH]c1ccccc12` [Ellipticine], the IC50 was found to be 0.052 ± 0.003 µM. As for `CC(C)=CCOc1c2ccoc2cc2oc(=O)ccc12` [Isoimperatorin], the IC50 was determined as 18.2 ± 1.72 µM and the “CYP3A4 inhibition activity (in words)” value is reported as “weaker”. For the compound `COc1cc(/C=C/c2ccc(O)cc2)cc(OC)c1` [Pterostilbene], the IC50 is 1.12 ± 0.056 µM.

Values taken from PMC9086869 (RSC Advances, 2018).
